In patent US20260207551A1, “PHOSPHOGLICERATE DEHYDROGENASE INHIBITORS FOR THE TREATMENT OF FIBROSIS” (CHIESI FARMACEUTICI S.P.A., priority 2022, published 2026):
Values belong to the compound of their own block, whether it stands above or below them.

Columns and labels:
[1] = test system: αSMA; assay: Phenotypic assay: high content aSMA staining in NHLF cells; type: cell-based, Human; details: for IC50: Homo sapiens, SMA, 72 h, read-out: aSMA pIC50 (converted)
Procedure: NHLF cells (Lonza #CC2512) were seeded as 2000 cells/well in 384-well plates in MEM medium w/o serine and glycine (Sigma #M2279)+1% pen/strep+5 mM L-glutamine +10% FBS and incubated overnight at 37° C., 5% CO2.
The next day, cells were washed with PBS and starvation MEM medium w/o serine and glycine (0% FBS) was added and cells were incubated overnight at 37° C., 5% CO2. The day after, cells were pre-incubated with compounds or vehicle (0.3% DMSO) for 1 h. Compounds were tested at 9 consecutive 3-fold dilutions starting from 30 μM. Each compound was tested in duplicate. Cells were further incubated for 72 h at 37° C., 5% CO2, 95% humidity. After 72 h of incubation, αSMA expression was quantified using immunostaining: • Fixation in 4% paraformaldehyde, • Blocking with 3% BSA, 2% FBS, 0.2% Triton-X in PBS, • Primary ab. anti-αSMA (AbCam #ab7817) diluted 500× in blocking buffer • Anti-mouse secondary ab. AF488 (ThermoFisher #A11029) • % of αSMA positive cells was determined by High Content Imaging (Molecular Device), data analysis was performed using MetaXpress software (Molecular Devices) and % of αSMA positive was further used to calculate % of inhibition for tested compounds. Total cell number was determined by Hoechst staining and % of viability over TGFβ stimulated controls was calculated.

[2] = test system: alpha smooth muscle actin (α-SMA); assay: TGF-b induced α-SMA expression in NHLFs (Western blot); type: cell-based, Human; details: 50 uM; NHLF, TGF-β (10 ng/ml) 48 h
Source text: The antifibrotic activity of compounds of the present invention has been monitored measuring the expression of fibrotic mediators, collagen I (Col-I) and alpha smooth muscle actin (α-SMA) after treatment in lung cells with TGF-β in comparison with Nintedanib (see Frank Hilberg et al, Cancer Res 2008 Jun. 15; 68(12):4774-82), and allosteric inhibitor NCT-503 (see Hamanaka et al., Am J Respir Cell Mol Biol. 2018 May; 58(5):585-593).
Human normal lung fibroblasts (NHLFs) were purchased from Lonza (Basel, Switzerland). NHFLs were cultured in Eagle's Minimum Essential medium (EMEM) w/o serine and glycine, supplemented with 10% Fetal Bovine Serum (FBS), antibiotics (50 U/ml penicillin and 0.05 mg/ml streptomycin) and 2 mM L-glutamine, in an atmosphere of 95% air and 5% CO2 at 37° C. NHLFs cultures were used between passage 1 and 9. Before all the experiments, cells were incubated overnight in serum-free medium.
NHLFs were seeded in 12-well plates at cultured until 70% of confluency. To examine the expression of fibrotic markers, cells were treated with different concentrations of Compounds and NCT-503 in EMEM medium for 1 h followed by stimulation with TGF-β for 48 h at 37° C., 5% CO2. Following cell treatments, medium was removed and whole cell extracts were prepared by directly adding to the well the 1× loading buffer (125 mM Tris-HCl pH 6.8, 4% SDS, 0.2% Orange G, 50% glycerol, 2.5% β-mercaptoethanol, Li-cor Biosciences), boiled for 5 min and then electrophoresed on Mini protean TGX gel 4-12% (Biorad). After electrophoresis, proteins were transferred to a nitrocellulose membrane. Immunodetection of Col-I, α-SMA and glyceraldeide 3-phosphate dehydrogenase (GAPDH) were obtained by using mouse anti-CollA1 (Santacruz), mouse anti-α-SMA (sigma) and rabbit anti-GAPDH (Cell Signaling Technology) all diluted at 1:1000 in TBS-tween 0.1%. […] Detection and quantification were performed with Odyssey imaging system (Li-cor) using GAPDH as loading control.

[3] = test system: bleomycin-induced pulmonary fibrosis; assay: Bleomycin-induced pulmonary fibrosis in male mice (Comparative Example 7); type: in vivo; details: for lung/body weight: NCT-503 100 mg/kg/day, Nintedanib esylate 60 mg/Kg/day
Procedure: The allosteric inhibitor NCT-503 has accordingly been assessed in the same murine model of Compound 19. Comparative Example 7 was carried out under the same experimental conditions of Example 5.
The treatment was stopped at day 10, after 4 days of treatment with NCT-503 600 mg/kg/day. After two days wash-out, the treatment re-started with a once daily regimen at the final dose of […].
The final dose was of 100 mg/kg/day.

[4] = Plasma and brain exposure after the last dose in bleomycin model (Comparative Example 7); type: in vivo, mice; details: after the last oral dose; 0.5 h, 2 h and 7 h
Procedure: Plasma and tissue exposures of NCT-503 were determined as described in Example 2. The plasma and brain concentrations of NCT-503 were determined by a liquid chromatography-tandem mass spectrometry (LC/MS/MS) assay. Plasma or tissue homogenate samples (tissues were homogenized with a water/acetonitrile 50/50 mixture) were extracted with 3 volumes of acetonitrile. Supernanatant was injected into HPLC system (Agilent 1260 Quaternary Pump equipped with an Agilent 1200 High Performance Autosampler SL; Agilent), using a Kinetex EVO C18 analytical column (100 A, 50×2.1 mm, 2.6 μm; Phenomenex). The mobile phases consisted of 0.1% formic acid in water (solvent A) and 0.1% formic acid in acetonitrile (solvent B); chromatographic separation was performed with gradient elution method (0.0-0.5 min, 5% B; 0.5-4.0 min, gradient to 90% B; 4.0-5.5 min, 90% B; 5.5-7.0 min, gradient to 5% B; 7.0-11.0 min, 5% B—flow rate: 0.3 mL/min).
Mass spectrometric analysis was performed on a linear ion trap triple quadrupole mass spectrometer (4000 Q TRAP; AB SCIEX) equipped with a turbo spray ion source; mass spectrometer was operated in positive ion mode and quantification was achieved by multiple reaction monitoring (MRM) mode. Peak integration was performed using Analyst (version 1.6.2.). […]
Plasma and brain exposure of NCT-503 was determined following the last oral dose at three timepoints (0.5 h, 2 h and 7 h).

[5] = test system: bleomycin-induced pulmonary fibrosis; details: treated mice 7 days after intratracheal instillation of bleomycin; cited from earlier work
[6] = test system: bleomycin-induced pulmonary fibrosis; assay: Bleomycin-induced pulmonary fibrosis in male mice (Example 6); type: in vivo, Male C57BL6/J mice; details: Nintedanib esylate 50 mg/Kg bid
Procedure: The effect of Compound 19a was evaluated in a murine model (C57BL/6J mouse strain) in which fibrosis was induced by a double oropharyngeal (OA) instillation of bleomycin. The Compound 19a was administered under therapeutic regimen for 14 days, starting the treatments at day 7 from the first instillation of Bleomycin OA up to the day 21, considered the endpoint for this model.
All mice were maintained under pathogen-free conditions and had free access to food and water.
Lung injury was induced by double OA instillation of bleomycin hydrochloride (BLM, BAXTER, Deerfield, IL, USA) at day 0 and day 4 at the dose of 0.03 U/mouse in […] of saline solution (NaCl 0.9%). Control animals received double OA instillation of […] of saline solution.
The Compound 19a was orally administered twice daily at the three doses of 3, 30 and 100 mg/Kg 10 mL/Kg, using as vehicle for dissolution the 0.5% Tween 80, 0.5% Methylcellulose in H2O.
On day 21, the respiratory system mechanics were measured using the FlexiVent System (SCIREQ Inc., Montreal Qc, Canada) (Vanoirbeek et al., 2010).
Briefly, mice were anesthetized by intraperitoneal injection of ketamine (Anesketin®, Dechra Inc., Handelsweg, NL) and xylazine (Xilagesic®, Calier Inc., Barcelona, ES) solution (100 mg/Kg and 10 mg/Kg, respectively). Once anesthesia was achieved, to analyze forced vital capacity (FVC), anesthetized mice were tracheotomized using an 18-gauge metal cannula, connected via an endotracheal cannula to the FlexiVent and ventilated at a respiratory rate of 150 breaths/min and tidal volume of 10 mL/Kg against a positive end-expiratory pressure of 3 cm H2O to achieve a mean lung volume close to that during spontaneous breathing. To prevent spontaneous breathing mice also received pancuronium bromide at 1 mg/Kg intraperitoneally. FlexiVent software version 8.1 was used to perform the perturbations.
Immediately after the in-life evaluation, plasma and bronchoalveolar lavage fluid (BALF) samples were collected.
First, blood was collected by cardiac puncture, and plasma was obtained after centrifugation of blood at 2000×g and 4° C. for 10 minutes.
Subsequently, the lungs were gently rinsed three times using a tracheal cannula with 0.6 mL of clear BAL solution. The obtained BALF was centrifuged at 1000×g and 4° C. for 10 minutes. The cell-free supernatant was used for biomarkers quantitative determination.
The following biomarkers were determined in BALF and plasma samples by commercially available ELISA kits: Collagen I (evaluated in BALF), an index of collagen accumulation; matrix metallopeptidase 7 (MMP-7, evaluated in BALF), indicator of aberrant fibrogenesis and ECM remodeling and surfactant protein D (SP-D, evaluated in PLASMA), marker of alveolar epithelial cell damage and dysfunction.
Lastly, the entire lungs were resected, fixed with formalin and embedded in paraffin. Sections were stained with Masson's trichrome to assess the grade and severity of fibrosis and collagen deposition.

[7] = test system: bleomycin-induced pulmonary fibrosis; assay: Bleomycin-induced pulmonary fibrosis in male mice (Example 5)
Procedure: Male C57BL6/J mice (7-8 weeks old) were purchased from the Envigo RMS (San Pietro al Natisone (UD), Italy). All mice were maintained under pathogen-free conditions and were provided food and water ad libitum.
Lung injury was induced by double oropharyngeal instillation of Bleomycin hydrochloride (BLM, BAXTER) at day 0 and day 4 at the doses of 0.02 U/mouse in 50 μl of saline solution (0.9%). Control animals received double oropharyngeal instillation of 50 μl of saline solution.
Compound 19 was orally administered twice daily, starting on day 7 after the first oropharyngeal administration of bleomycin at the two doses of 400 and 600 mg/kg/day, 10 ml/kg, dissolved in 0.5% Tween 80, 0.5% Methylcellulose in H2O and treatment lasted for two weeks.
A group of animals was treated with Nintedanib esylate salt, at the dose of 60 mg/kg/day, 10 ml/kg, once daily, to compare the efficacy of the test compounds with an FDA approved drug for the treatment of IPF patients. Control mice were given vehicle-only over the same time intervals. Weight of all animals has been assessed twice a week starting from day 0 until day 21.
On days 21, mice were anesthetized by intraperitoneal injection of thiopental (200 mg/kg/10 ml; pentothal sodium, MSD Animal Health Srl). Blood was withdrawn by cardiac puncture and collected in heparine tubes. Plasma was obtained after centrifugation of blood at 10,000 g for 10 min. Lungs were lavage with saline solution through the heart, formalin fixed and paraffin embedded, and sections were stained with Masson's Trichrome to evaluate the grade and severity of fibrosis and collagen deposition.
Masson's Trichrome stained slides were also scanned with NanoZoomer S60 (Hamamatsu Photonics K.K., Shizuoka, Japan) and acquired into the Visiopharm Integrator System (VIS; version 2017.2.4.3387) for a quantification of pulmonary fibrosis by automated analysis with the support of a VIS Analysis Protocol Package (APP). The present APP has been designed to identify and then quantify the fibrotic tissue, detecting accumulation of altered connective tissue, excess of collagen deposition and cellular density.
To quantify lung protein content and the levels of specific proteins as markers of fibrosis and collagen deposition, lungs from subgroups of animals were weighted, homogenized in Phosphate buffer solution (PBS) and proteins of interest were quantified by immunometric or colorimetric assays. Hydroxyproline content was determined using the Hydroxyproline Colorimetric Assay Kit (Sigma MAK008, USA) according to the manufacturer's protocol. WISP-1, CollagenI, pro-CollagenI and Elastin were determined by Elisa kits. Protein quantification was performed using DC Protein Assay (Bio-Rad Laboratories, Italy). Plasma serine levels were measured using the DL-Serine Assay Kit (Abcam, Cambridge, MA).

Compound: Cn1c(C(=O)NC2(c3ccc(C(C(=O)O)C4CC4)cc3)CCOC2)cc2c(Cl)c(Cl)ccc21 (racemic) [Compound 15, (±)-2-Cyclopropyl-2-(4-(3-(4,5-dichloro-1-methyl-1H-indole-2-carbox-amido)tetrahydrofuran-3-yl)phenyl)acetic acid]
- IC50 ([1]; NHLF, 72 h incubation): 2000 nM

Compound: Cn1c(C(=O)NC2(c3ccc(C(C(=O)O)C4CCCC4)cc3)CCOC2)cc2c(Cl)c(Cl)ccc21 (racemic) [Compound 16, (±)-2-cyclopentyl-2-{4-[3-(4,5-dichloro-1-methyl-1H-indole-2-amido)oxolan-3-yl]phenyl}acetic acid]
- IC50 ([1]; NHLF, 72 h incubation): 501 nM

Compound: Cc1cc(C)nc(NC(=S)N2CCN(Cc3ccc(C(F)(F)F)cc3)CC2)c1 [NCT-503]
- TGF-b induced a-sma (% inh. 50 uM) [2]: 93%
- aSMA pIC50 ([1]; NHLF, 72 h incubation): >5.0
- expression of aSMA (in words) ([1]; after 72 hours of incubation): partially reduces the expression of aSMA
- fibrosis severity (FIG. 20B) ([3]; 100 mg/kg/day): not significant trend in reducing fibrosis severity
- Ashcroft score analysis (FIG. 20A) ([3]; 100 mg/kg/day, compared to vehicle-treated mice): did not result in diminished Bleomycin-induced lung fibrosis
- body weight ([3]; 200 mg/kg/day): did not show a significant worsening of the body weight
- tolerability ([3]; 600 mg/kg/day (bid)): did not tolerate
- survival ([3]; 600 mg/kg/day then 300 mg/kg/day once daily): 40%
- weight loss compared to Day 0 ([3]; 600 mg/kg/day, 4 days of treatment): ~ 20%
- lung/body weight [3]: do not induce reduction of lung/body weight
- levels of pro-CollagenI and WISP-1 ([3]; lung homogenates): not affected
- circulating serine levels (de novo serine synthesis) ([3]; plasma): did not induce inhibition of de novo serine synthesis
- main brain/plasma ratio [4]: 2.4
- attenuation of lung fibrosis [5]: preliminary efficacy in attenuation of lung fibrosis

Compound: COC(=O)c1ccc2c(c1)NC(=O)/C2=C(\Nc1ccc(N(C)C(=O)CN2CCN(C)CC2)cc1)c1ccccc1 [Nintedanib, reference compound]
- reduction of Collagen I in BALF ([6]; Compound 19a 100 mg/Kg bid): 56%
- reduction of MMP-7 in BALF ([6]; Compound 19a 100 mg/Kg bid): 86%
- reduction of SP-D levels in plasma ([6]; Compound 19a 100 mg/Kg bid): 87%
- improvement of FVC decline ([6]; Compound 19a 100 mg/kg bid, vs BLM/vehicle): similarly to Nintedanib
- lung/body weight [3]: do not induce reduction of lung/body weight
- reduction of lung/body weight ([7]; Compound 19 highest dose (600 mg/kg/day), Nintedanib esylate 60 mg/kg/day, not significant): −21%
- body weight during 2-weeks of treatment ([7]; compared to BLM/Vehicle treated group): did not lose additional weight
- Ashcroft score (FIG. 11A) ([7]; day 21): reduced

The next lines start with the values.

- IC50 ([1]; NHLF, 72 h incubation): 1260 nM
Compound: COc1cc2c(cc(C(=O)NC3(c4ccc(C(C(=O)O)C(C)C)cc4)CCOC3)n2C)c(Cl)c1Cl (racemic) [Compound 20, (±)-2-{4-[3-(4,5-dichloro-6-methoxy-1-methyl-1H-indole-2-amido)oxolan-3-yl]phenyl}-3-methylbutanoic acid]

- IC50 ([1]; NHLF, 72 h incubation): 1260 nM
Compound: CCC(C(=O)O)c1ccc(C2(NC(=O)c3cc4c(Cl)c(Cl)ccc4n3C)CCOC2)cc1 (racemic) [Compound 72, (±)-2-{4-[3-(4,5-dichloro-1-methyl-1H-indole-2-amido)oxolan-3-yl]phenyl}butanoic acid]
